Data as given in ChEMBL document CHEMBL1201862, “PubChem BioAssay data set” (2004).
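Compound exposure: 48 hours, 5 concentrations, 96-well plates. Abbreviation: GI50, concentration required for 50% inhibition of growth.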 The source made the active and inactive calls. No stated cut-off is given here; in the data, active = GI50 up to about 1.1 µM and inactive = higher.

What was measured:
Experiment in all cases: inhibition of tumour cell growth, NCI panel, 48 h
[1] = tested on: DLD-1
[2] = tested on: DMS-114
[3] = tested on: DMS-273
[4] = tested on: HOP-18
[5] = tested on: KM-20L2
[6] = tested on: RXF 631
[7] = tested on: XF498
[8] = tested on: M19-MEL
[9] = tested on: SNB-78

Measured: GI50

CC(c1cccc2ccccc12)/[N+]([O-])=C/c1ccccc1 (centres undefined)
inactive: [1] > 100 µM | [2] > 100 µM | [3] > 100 µM | [4] 36.1 µM | [5] > 100 µM | [6] > 100 µM | [7] > 100 µM

CCOC(=O)/C(=C/c1ccc(C#N)cc1)N(CC)CC
inactive: [1] > 100 µM | [2] > 100 µM | [4] 63 µM | [8] > 100 µM | [6] > 100 µM | [9] > 100 µM | [7] > 100 µM

CCCc1ccc(/N=C\c2cc(OC)c(OC)c(OC)c2)cc1
inactive: [1] > 75.9 µM | [2] 18.7 µM | [3] > 83.4 µM | [4] > 100 µM | [5] > 100 µM | [8] > 100 µM | [9] > 100 µM | [7] > 100 µM

COc1ccc2nc(NC(=O)C(=O)C(C#N)c3ccc(Cl)c(Cl)c3)sc2c1 (centres undefined)
inactive: [1] > 100 µM | [2] 78.9 µM | [3] > 100 µM | [5] > 100 µM | [8] > 100 µM | [6] > 100 µM | [9] > 100 µM | [7] > 100 µM

Cc1cc(Cl)ccc1NC(=O)C(=O)C(C(=O)c1ccccc1)C1OC(=O)c2ccccc21 (centres undefined)
inactive: [1] > 100 µM | [2] > 100 µM | [3] > 100 µM | [4] > 100 µM | [5] > 100 µM | [8] > 100 µM | [9] > 100 µM | [7] > 100 µM

CC1=C(C(=O)Nc2ccccc2)C(c2ccc(Cl)c(Cl)c2)C(C(=O)Nc2ccccc2)=C(C)N1
inactive: [1] 12.1 µM | [2] 11.2 µM | [3] 13 µM | [5] 14.9 µM | [8] 12.9 µM | [6] 12.4 µM | [9] 17.7 µM | [7] 16.6 µM

N#C/C(=C\c1ccc(O)cc1O)C(N)=O
inactive: [1] 67.1 µM | [3] > 100 µM | [5] 28.2 µM | [8] > 100 µM | [9] > 100 µM | [7] 34.2 µM

CC(C)=CCC/C(C)=C/CC/C(C)=C/C1CCC(=O)C1(C)C (centres undefined)
inactive: [1] 17.4 µM | [2] 14.5 µM | [4] 22.4 µM | [5] 16.3 µM | [8] 19.2 µM | [6] 44.6 µM | [9] 22.6 µM | [7] 18.2 µM

C=C1C(=O)OC2C1C(OC(=O)/C(C)=C\C)CC1(CO1)C1C(O)C=C(C)C21O (centres undefined)
inactive: [1] 2.33 µM | [2] 3.19 µM | [3] 6.46 µM | [4] 10.9 µM | [5] 3.19 µM | [8] 6.24 µM | [6] 3.52 µM | [9] 9.53 µM | [7] 12.7 µM

CN1COc2c(n(C)c(=O)[nH]c2=O)C1
inactive: [1] > 100 µM | [2] > 61.2 µM | [3] 45.7 µM | [4] > 100 µM | [5] > 100 µM | [8] > 100 µM | [9] > 100 µM | [7] > 100 µM

COC(=O)/C=C/C1C(C(=O)OC)C2(C(=O)OC)CCC1(C(=O)OC)N2 (centres undefined)
inactive: [1] > 100 µM | [3] > 100 µM | [4] 96.8 µM | [5] > 100 µM | [8] > 100 µM | [6] > 100 µM | [9] > 100 µM | [7] > 100 µM

O=C(/N=N/C(=O)OCc1ccccc1)OCc1ccccc1
inactive: [2] 34.4 µM | [3] 91.6 µM | [4] > 100 µM | [5] > 100 µM | [8] > 100 µM | [6] > 100 µM | [9] > 100 µM | [7] > 100 µM

CCCCCCCCNC(=O)SCCCC
inactive: [1] 43.4 µM | [3] 31.4 µM | [4] 31 µM | [5] 33.3 µM | [8] 40.5 µM | [6] 39.1 µM | [7] 13.8 µM

CSc1nnc(CCC(=O)Nc2c(C)cccc2C)o1
inactive: [1] > 100 µM | [2] > 100 µM | [4] > 100 µM | [5] > 100 µM | [8] > 100 µM | [6] > 100 µM | [9] > 100 µM | [7] > 100 µM

Nc1c([N+](=O)[O-])nc(Cl)c2nncn12
inactive: [1] > 58.9 µM | [2] > 42 µM | [3] 16.5 µM | [4] > 100 µM | [5] > 87.1 µM | [8] > 100 µM | [6] > 100 µM | [9] > 100 µM | [7] > 100 µM

C[C@]12CCc3nn(-c4ccccc4)nc3C1CC[C@@H]1C2CC[C@]2(C)C(=O)CCC12 (some centres undefined)
inactive: [1] 93.3 µM | [2] > 100 µM | [3] > 100 µM | [4] > 100 µM | [5] > 100 µM | [8] > 100 µM | [9] > 100 µM
